Earlier results as cited in US20120183610A1, “GLUCOCORTICOID THERAPY” (priority 2009, published 2012).
Blank lines part the entries; values can stand above or below the compound they belong to.

Assays:
[1] = dose equivalent to 20 mg hydrocortisone
[2] = after 2.3 to 6.8 months; mean dose reduced to 20.8±1.0 mg; p<0.01
[3] = 30 to 15 mg daily; after 3 months

SMILES: C[C@@H]1C[C@H]2[C@@H]3C[C@H](F)C4=CC(=O)C=C[C@]4(C)[C@H]3[C@@H](O)C[C@]2(C)[C@@]1(O)C(=O)CO [Paramethasone]
Equivalent amount [1]: 2 mg

serum concentration of osteocalcin at re-evaluation [2]: 19.9 µg/L | BMI before dose reduction (11 patients with secondary adrenal insufficiency): 31.5±1.1 kg/m^2 | fasting glucose and insulin levels after dose reduction (dose reduced on average by 50%): unaffected | BMI after dose reduction (dose reduced on average by 50%, follow-up 6-12 months): 29.4±1.0 kg/m^2
SMILES: C[C@]12CCC(=O)C=C1CC[C@@H]1[C@@H]2[C@@H](O)C[C@@]2(C)[C@H]1CC[C@]2(O)C(=O)CO [Hydrocortisone]
Equivalent amount [1]: 20 mg | body weight and cardiovascular functional variables after dose reduction [3]: no change in body weight or any of the cardiovascular functional variables studied | body weight reduction, on average (dose reduced on average by 50%, 11 patients, follow-up 6-12 months): 7.1 kg

SMILES: C[C@]12C=CC(=O)C=C1CC[C@H]1[C@@H]3C[C@@H](O)[C@](O)(C(=O)CO)[C@@]3(C)C[C@H](O)[C@@]12F [Triamcinolone]
Equivalent amount [1]: 4 mg

SMILES: C[C@]12C=CC(=O)C=C1CC[C@@H]1[C@@H]2[C@@H](O)C[C@@]2(C)[C@H]1CC[C@]2(O)C(=O)CO [Prednisolone]
Equivalent amount [1]: 5 mg

SMILES: CC(=O)OCC(=O)[C@@]1(O)CC[C@H]2[C@@H]3CCC4=CC(=O)CC[C@]4(C)[C@H]3C(=O)C[C@@]21C [Cortisone acetate]
Equivalent amount [1]: 25 mg
